Results published in patent US20240415819A1, “MACROCYCLIC COMPOUNDS AS PROTEASOME SUBUNIT BETA TYPE-5 INHIBITORS” (Lead Discovery Center GmbH, priority 2021, published 2024).

Columns and labels:
[1] = system: HT-29 cells; test: CellTiter-Glo luminescent cell viability assay with HT-29 cells (72h incubation); type: cell-based, human; conditions: Homo sapiens, HT-29, HT29 cells, read-out: CTG HT29
Procedure, shortened: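 400 cells per well in DMEM/10% FCS were dosed after 24 h and kept 72 h at 37 °C, 5% CO2. ATP-based luminescence (CellTiter-Glo) normalized to DMSO and 10 μM staurosporine controls; IC50 by dose-response fit.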

[2] = molecular target: T1, β5 subunit of the human constitutive proteasome (CPS) (Homo sapiens, UniProt P28074); test: β5 inhibition assay, human constitutive proteasome (Suc-LLVY-AMC); type: biochemical; conditions: IC50 class, Suc-LLVY-AMC substrate
T1 construct: purchased Boston Biochem E-360
Description: The enzymatic activity of the β5 subunit of the human constitutive proteasome (CPS) is analyzed. In another assay, which differs from the assay of the human constitutive proteasome only in using the human immunoproteasome (IPS) the enzymatic activity of the β5 subunit of the human immunoproteasome (IPS) is analyzed. […] Inhibition is indicated as IC50 [nM] (“-”=not measured).

[3] = molecular target: T2, β5 subunit of the human immunoproteasome (IPS) (Homo sapiens, UniProt P28062); test: β5 inhibition assay, human immunoproteasome (Suc-LLVY-AMC); type: biochemical; conditions: IC50 class, Suc-LLVY-AMC substrate
T2 construct: purchased Boston Biochem E-370
Procedure, shortened: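 Human immunoproteasome (1 nM final) was preincubated 10 min at RT with compound in 100 mM HEPES pH 7.5, 50 mM NaCl, 0.02% SDS, 1 mM DTT. Suc-LLVY-AMC (22.6 μM final) was then added for 4 h at RT in the dark. After stopping with 1 μM bortezomib, AMC fluorescence was read (ex 355/em 460 nm).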

[4] = system: A549 (human lung carcinoma cell line); test: Glo assay of A549 cells (Table 3; ProteasomeGlo plating scheme); type: cell-based; conditions: Homo sapiens; A549 cells; read-out: PGLo A549
Procedure, shortened: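 Cells plated in 384 wells; compound, DMSO, staurosporine transferred by ECHO; 105 min, 37° C., 5% CO2; Proteasome-Glo (Suc-LLVY-Glo) reagent added; dark 10-15 min; luminescence; IC50 nM.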

SMILES | IC50 [1] [nM] | IC50 [2] [nM] | IC50 [3] [nM] | IC50 [4] [nM]
Cc1ccc2cc1CNC(=O)[C@H](CCc1ccccc1)NC(=O)[C@@H](NC(=O)C1(N)COC1)CC(=O)N1CCCC(CCO2)C1 (stereo partly drawn) [Compound 158, 3-amino-N-((9S,12S)-5^4-methyl-8,11,14-trioxo-9-phenethyl-4-oxa-7,10-diaza-1(3,1)-piperidina-5(1,3)-benzenacyclotetradecaphane-12-yl)oxetane-3-carboxamide] | < 100 | < 100 | < 100 | < 100
Cc1ccc2cc1CNC(=O)[C@H](CCc1ccccc1)NC(=O)[C@@H](NC(=O)c1ccccn1)CC(=O)N1CCCC(CCO2)C1 (stereo partly drawn) [Compound 40, N-((9S,12S)-5^4-methyl-8,11,14-trioxo-9-phenethyl-4-oxa-7,10-diaza-1(3,1)-piperidina-5(1,3)-benzenacyclotetradecaphane-12-yl)picolinamide] | < 100 | < 100 | < 100 | < 100
Cc1ccc2cc1CNC(=O)[C@H](CCc1ccccc1)NC(=O)[C@@H](NC(=O)C1(N)CCOC1)CC(=O)N1CCCC(CCO2)C1 (stereo partly drawn) [Compound 159, 3-amino-N-((9S,12S)-5^4-methyl-8,11,14-trioxo-9-phenethyl-4-oxa-7,10-diaza-1(3,1)-piperidina-5(1,3)-benzenacyclotetradecaphane-12-yl)tetrahydrofuran-3-carboxamide] | < 100 | < 100 | < 100 | 100 to 500
Cc1ccc2cc1CNC(=O)[C@H](Cc1c[nH]c3ccccc13)NC(=O)CCC(=O)N1CCCC(CCO2)C1 (stereo partly drawn) [Compound 77, (9S)-9-((1H-indol-3-yl)methyl)-5^4-methyl-4-oxa-7,10-diaza-1(3,1)-piperidina-5(1,3)-benzenacyclotetradecaphane-8,11,14-trione] | 1000 to 5000 | < 100 | < 100 | 500 to 1000
